Earlier results on two molecules are cited in US11311620B2, “Neoadjuvant therapy for bladder cancer” (PHOTOCURE ASA, priority 2016, dated 2022).

Data set [1] deals with bladder cancer. As to conditions: neoadjuvant cisplatin-containing chemotherapy.
In data set [2] the test system is MIBC. Particulars: patients who had cystectomy; HAL-guided TUR prior to cystectomy; 268 consecutive patients, retrospective.
The subject of data set [3] is NMIBC. As to conditions: patients with NMIBC.

As to `N.N.[Cl][Pt][Cl]` [cisplatin], the “absolute improvement in survival at 5 years” value in data set [1] is 5%.

Consider `CCCCCCOC(=O)CCC(=O)CN` [HAL, n-hexyl 5-amino-4-oxo-pentanoate], for which, in data set [2], the “3-year overall survival (OS)” value is 65.0% and the “3-year recurrence-free survival (RFS)” value is on record as 69.8%. Besides, in data set [3], the “rate of residual tumor after TUR” value is “reduced the rate of residual tumor” and the “recurrence free survival (RFS) rates compared to white light TUR alone” value is on record as “superior recurrence free survival (RFS) rates”. Also, the “detection of papillary tumors and flat carcinoma-in-situ (CIS) lesions” value in data set [3] (compared to white light alone) is recorded as “improved detection”.
